Results as given in patent publication US10640497B2, “Microbiocidal oxadiazole derivatives” (SYNGENTA PARTICIPATIONS AG, priority 2015, dated 2020).

Key:
[1] = tested on: Glomerella lagenarium (Colletotrichum lagenarium); experiment: Fungicidal activity against Glomerella lagenarium (Colletotrichum lagenarium), liquid culture, cucumber, preventative (anthracnose); format: cell-based; settings: Colletotrichum orbiculare, liquid culture (PDB), growth inhibition measured photometrically 3-4 days after application, compared to untreated control
Experimental: Mycelia fragments or conidia suspensions of a fungus, prepared either freshly from liquid cultures of the fungus or from cryogenic storage, are directly mixed into nutrient broth. DMSO solutions of the test compound (max. 10 mg/ml) is diluted with 0.025% Tween20 by a factor of 50 and 10 μl of this solution is pipetted into a microtiter plate (96-well format). The nutrient broth containing the fungal spores/mycelia fragments is then added to give an end concentration of the tested compound. The test plates are incubated in the dark at 24° C. and 96% relative humidity. The inhibition of fungal growth is determined photometrically after 2 to 7 days, depending on the pathosystem, and percent antifungal activity relative to the untreated check is calculated. Conidia of the fungus from cryogenic storage are directly mixed into nutrient broth (PDB potato dextrose broth). After placing a (DMSO) solution of test compound into a microtiter plate (96-well format), the nutrient broth containing the fungal spores is added. The test plates are incubated at 24° C. and the inhibition of growth is measured photometrically 3-4 days after application.

[2] = tested on: Phakopsora pachyrhizi; experiment: Fungicidal activity against Phakopsora pachyrhizi, soybean, leaf disc preventative (Asian soybean rust); format: in vivo; settings: foliar, 288 h, 12-14 days after application, compared to untreated control
Experimental: Leaf disks or leaf segments of various plant species are cut from plants grown in a greenhouse. The cut leaf disks or segments are placed in multiwell plates (24-well format) onto water agar. The leaf disks are sprayed with a test solution before (preventative) or after (curative) inoculation. Compounds to be tested are prepared as DMSO solutions (max. 10 mg/ml) which are diluted to the appropriate concentration with 0.025% Tween20 just before spraying. The inoculated leaf disks or segments are incubated under defined conditions (temperature, relative humidity, light, etc.) according to the respective test system. A single evaluation of disease level is carried out 3 to 14 days after inoculation, depending on the pathosystem. Percent disease control relative to the untreated check leaf disks or segments is then calculated. Soybean leaf disks are placed on water agar in multiwell plates (24-well format) and sprayed with the formulated test compound diluted in water. One day after application leaf discs are inoculated by spraying a spore suspension on the lower leaf surface. After an incubation period in a climate cabinet of 24-36 hours in darkness at 20° C. and 75% rh leaf disc are kept at 20° C. with 12 h light/day and 75% rh. The activity of a compound is assessed as percent disease control compared to untreated when an appropriate level of disease damage appears in untreated check leaf disks (12-14 days after application).

[3] = tested on: Puccinia recondita f. sp. tritici; experiment: Fungicidal activity against Puccinia recondita f. sp. tritici, wheat, leaf disc curative (brown rust); format: in vivo; settings: foliar, 144 h, wheat leaf segments, curative (applied 1 day after inoculation), 6-8 days after application, compared to untreated control
Experimental: (§1) Leaf disks or leaf segments of various plant species are cut from plants grown in a greenhouse. The cut leaf disks or segments are placed in multiwell plates (24-well format) onto water agar. The leaf disks are sprayed with a test solution before (preventative) or after (curative) inoculation. Compounds to be tested are prepared as DMSO solutions (max. 10 mg/ml) which are diluted to the appropriate concentration with 0.025% Tween20 just before spraying. The inoculated leaf disks or segments are incubated under defined conditions (temperature, relative humidity, light, etc.) according to the respective test system. A single evaluation of disease level is carried out 3 to 14 days after inoculation, depending on the pathosystem. Percent disease control relative to the untreated check leaf disks or segments is then calculated. Wheat leaf segments cv. Kanzler are placed on agar in multiwell plates (24-well format). The leaf segments are inoculated with a spore suspension of the fungus. Plates are stored in darkness at 19° C. and 75% rh. The formulated test compound diluted in water is applied 1 day after inoculation. The leaf segments are incubated at 19° C. and 75% rh under a light regime of 12 h light/12 h darkness in a climate cabinet and the activity of a compound is assessed as percent disease control compared to untreated when an appropriate level of disease damage appears in untreated check leaf segments (6-8 days after application).

[4] = tested on: Puccinia recondita f. sp. tritici; experiment: Fungicidal activity against Puccinia recondita f. sp. tritici, wheat, leaf disc preventative (brown rust); format: in vivo; settings: foliar, wheat leaf segments, preventative (inoculated 1 day after application), 7-9 days after application, compared to untreated control
Experimental: as §1, with “plates (24-well format) and sprayed with the formulated test compound diluted in water. The leaf” for “plates (24-well format). The leaf”, “of the fungus 1 day” for “of the fungus. Plates are stored in darkness at 19° C. and 75% rh. The formulated test compound diluted in water is applied 1 day”, “day after application. The inoculated” for “day after inoculation. The leaf”, “application. The inoculated leaf segments” for “inoculation. The leaf segments”, “leaf segments (7-9 days after” for “leaf segments (6-8 days after”

O=C1C2CCC(C2)N1Cc1ccc(-c2noc(C(F)(F)F)n2)cc1 (stereo not drawn) [Compound A-24, 3-[[4-[5-(trifluoromethyl)-1,2,4-oxadiazol-3-yl]phenyl]methyl]-3-azabicyclo[2.2.1]heptan-2-one]
≥ 80%: inhibition of growth at 20 ppm [1] | pest or weed control at 200 ppm [2] | pest or weed control at 200 ppm [3] | pest or weed control at 200 ppm [4]

O=C1CCCC2(CC2)N1Cc1ccc(-c2noc(C(F)(F)F)n2)cc1 [Compound A-25, 4-[[4-[5-(trifluoromethyl)-1,2,4-oxadiazol-3-yl]phenyl]methyl]-4-azaspiro[2.5]octan-5-one]
≥ 80%: inhibition of growth at 20 ppm [1] | pest or weed control at 200 ppm [2] | pest or weed control at 200 ppm [3] | pest or weed control at 200 ppm [4]

O=C1CCC2(CC2)N1Cc1ccc(-c2noc(C(F)(F)F)n2)cc1 [Compound A-27, 4-[[4-[5-(trifluoromethyl)-1,2,4-oxadiazol-3-yl]phenyl]methyl]-4-aza-spiro[2.4]heptan-5-one]
≥ 80%: inhibition of growth at 20 ppm [1] | pest or weed control at 200 ppm [2] | pest or weed control at 200 ppm [3] | pest or weed control at 200 ppm [4]

O=C1CCCCN1Cc1ccc(-c2noc(C(F)(F)F)n2)cc1F [Compound A-29, 1-[[2-fluoro-4-[5-(trifluoromethyl)-1,2,4-oxadiazol-3-yl]phenyl]methyl]piperidin-2-one]
≥ 80%: inhibition of growth at 20 ppm [1] | pest or weed control at 200 ppm [2] | pest or weed control at 200 ppm [3] | pest or weed control at 200 ppm [4]

CCOC(=O)N1CCN(Cc2ccc(-c3noc(C(F)(F)F)n3)cc2)C(=O)C1 [Compound A-32, ethyl 3-oxo-4-[[4-[5-(trifluoromethyl)-1,2,4-oxadiazol-3-yl]phenyl]methyl]piperazine-1-carboxylate]
≥ 80%: inhibition of growth at 20 ppm [1] | pest or weed control at 200 ppm [2] | pest or weed control at 200 ppm [3] | pest or weed control at 200 ppm [4]

CC(=O)N1CCN(Cc2ccc(-c3noc(C(F)(F)F)n3)cc2)C(=O)C1 [Compound A-35, 4-acetyl-1-[[4-[5-(trifluoromethyl)-1,2,4-oxadiazol-3-yl]phenyl]methyl]piperazin-2-one]
≥ 80%: inhibition of growth at 20 ppm [1] | pest or weed control at 200 ppm [2] | pest or weed control at 200 ppm [3] | pest or weed control at 200 ppm [4]

O=C1CCCON1Cc1ccc(-c2noc(C(F)(F)F)n2)cc1 [Compound A-37, 2-[[4-[5-(trifluoromethyl)-1,2,4-oxadiazol-3-yl]phenyl]methyl]oxazinan-3-one]
≥ 80%: inhibition of growth at 20 ppm [1] | pest or weed control at 200 ppm [2] | pest or weed control at 200 ppm [3] | pest or weed control at 200 ppm [4]

CON(C)C(=O)N1CCN(Cc2ccc(-c3noc(C(F)(F)F)n3)cc2)C(=O)C1 [Compound A-39, N-methoxy-N-methyl-3-oxo-4-[[4-[5-(trifluoromethyl)-1,2,4-oxadiazol-3-yl]phenyl]methyl]piperazine-1-carboxamide]
≥ 80%: inhibition of growth at 20 ppm [1] | pest or weed control at 200 ppm [2] | pest or weed control at 200 ppm [3] | pest or weed control at 200 ppm [4]

O=C1CN(C(=O)C2CC2)CCN1Cc1ccc(-c2noc(C(F)(F)F)n2)cc1 [Compound A-40, 4-(cyclopropane-carbonyl)-1-[[4-[5-(trifluoromethyl)-1,2,4-oxadiazol-3-yl]phenyl]methyl]piperazin-2-one]
≥ 80%: inhibition of growth at 20 ppm [1] | pest or weed control at 200 ppm [2] | pest or weed control at 200 ppm [3] | pest or weed control at 200 ppm [4]

CN(C)S(=O)(=O)N1CCN(Cc2ccc(-c3noc(C(F)(F)F)n3)cc2)C(=O)C1 [Compound A-42, N,N-dimethyl-3-oxo-4-[[4-[5-(trifluoromethyl)-1,2,4-oxadiazol-3-yl]phenyl]methyl]piperazine-1-sulfonamide]
≥ 80%: inhibition of growth at 20 ppm [1] | pest or weed control at 200 ppm [2] | pest or weed control at 200 ppm [3] | pest or weed control at 200 ppm [4]

CNS(=O)(=O)N1CCN(Cc2ccc(-c3noc(C(F)(F)F)n3)cc2)C(=O)C1 [Compound A-43, N-methyl-3-oxo-4-[[4-[5-(trifluoromethyl)-1,2,4-oxadiazol-3-yl]phenyl]methyl]piperazine-1-sulfonamide]
≥ 80%: inhibition of growth at 20 ppm [1] | pest or weed control at 200 ppm [2] | pest or weed control at 200 ppm [3] | pest or weed control at 200 ppm [4]

CN1CCN(Cc2ccc(-c3noc(C(F)(F)F)n3)cc2)C1=O [Compound A-46, 1-methyl-3-[[4-[5-(trifluoromethyl)-1,2,4-oxadiazol-3-yl]phenyl]methyl]imidazolidin-2-one]
≥ 80%: inhibition of growth at 20 ppm [1] | pest or weed control at 200 ppm [2] | pest or weed control at 200 ppm [3] | pest or weed control at 200 ppm [4]

CN1C(=O)CN(Cc2ccc(-c3noc(C(F)(F)F)n3)cc2)C1=O [Compound A-47, 3-methyl-1-[[4-[5-(trifluoromethyl)-1,2,4-oxadiazol-3-yl]phenyl]methyl]imidazolidine-2,4-dione]
≥ 80%: inhibition of growth at 20 ppm [1] | pest or weed control at 200 ppm [2] | pest or weed control at 200 ppm [3] | pest or weed control at 200 ppm [4]

CN1CCCN(Cc2ccc(-c3noc(C(F)(F)F)n3)cc2)C1=O [Compound A-48, 1-methyl-3-[[4-[5-(trifluoromethyl)-1,2,4-oxadiazol-3-yl]phenyl]methyl]hexahydro-pyrimidin-2-one]
≥ 80%: inhibition of growth at 20 ppm [1] | pest or weed control at 200 ppm [2] | pest or weed control at 200 ppm [3] | pest or weed control at 200 ppm [4]

CN1CC(=O)N(Cc2ccc(-c3noc(C(F)(F)F)n3)cc2)C1=O [Compound A-50, 1-methyl-3-[[4-[5-(trifluoromethyl)-1,2,4-oxadiazol-3-yl]phenyl]methyl]imidazolidine-2,4-dione]
≥ 80%: inhibition of growth at 20 ppm [1] | pest or weed control at 200 ppm [2] | pest or weed control at 200 ppm [3] | pest or weed control at 200 ppm [4]
